Assay results from patent US7485641B2, “Substituted 3-amino-pyrrolidino-4-lactams” (Pfizer, Inc., priority 2006, dated 2009).
Where a name gives a salt, the structure may show the parent alone.

What was measured:
[1] = target: T1, DPP-IV (Homo sapiens, UniProt P27487); test: In vitro assay for dipeptidyl peptidase inhibition; type: biochemical; details: n-value given in brackets; for IC50: read-out: DPP-IV IC50
T1 construct: purchased Enzyme Systems Products SPE-01

[2] = system: KK/H1J mice; test: In vivo assay for glucose lowering (oral glucose tolerance test); details: 4-6 week old fasted KK/H1J mice, oral dosing in 0.5% methylcellulose, glucose at 15 minutes, plasma glucose at 45 minutes
Procedure: The glucose lowering effects of the compound of Example 2 were exemplified in 4-6 week old KK/H1J mice (Jackson Labs) in the context of an oral glucose tolerance test.
The mice were fasted overnight (about 14-18 hours), but allowed free access to water. After fasting, (time “t”=0), 25 μL of blood was drawn from the retro-orbital sinus and added to 0.025% heparinized saline (100 μL) on ice. The mice (10 per group) were then orally dosed with a solution of a compound of formula (1) in 0.5% methylcellulose (0.2 mL/mouse). Two controls groups received only 0.5% methylcellulose. At time=15 minutes, the mice were bled, as described above, and then dosed with […] glucose in distilled water (0.2 mL/mouse). The first control group was dosed with glucose. The second control group was dosed with water. At time=45 minutes, the mice were again bled, as described above. The blood samples were centrifuged, the plasma collected and analyzed for glucose content on a Roche-Hitachi 912 glucose analyzer.

T1 sequence (P27487 whole entry, species assumed): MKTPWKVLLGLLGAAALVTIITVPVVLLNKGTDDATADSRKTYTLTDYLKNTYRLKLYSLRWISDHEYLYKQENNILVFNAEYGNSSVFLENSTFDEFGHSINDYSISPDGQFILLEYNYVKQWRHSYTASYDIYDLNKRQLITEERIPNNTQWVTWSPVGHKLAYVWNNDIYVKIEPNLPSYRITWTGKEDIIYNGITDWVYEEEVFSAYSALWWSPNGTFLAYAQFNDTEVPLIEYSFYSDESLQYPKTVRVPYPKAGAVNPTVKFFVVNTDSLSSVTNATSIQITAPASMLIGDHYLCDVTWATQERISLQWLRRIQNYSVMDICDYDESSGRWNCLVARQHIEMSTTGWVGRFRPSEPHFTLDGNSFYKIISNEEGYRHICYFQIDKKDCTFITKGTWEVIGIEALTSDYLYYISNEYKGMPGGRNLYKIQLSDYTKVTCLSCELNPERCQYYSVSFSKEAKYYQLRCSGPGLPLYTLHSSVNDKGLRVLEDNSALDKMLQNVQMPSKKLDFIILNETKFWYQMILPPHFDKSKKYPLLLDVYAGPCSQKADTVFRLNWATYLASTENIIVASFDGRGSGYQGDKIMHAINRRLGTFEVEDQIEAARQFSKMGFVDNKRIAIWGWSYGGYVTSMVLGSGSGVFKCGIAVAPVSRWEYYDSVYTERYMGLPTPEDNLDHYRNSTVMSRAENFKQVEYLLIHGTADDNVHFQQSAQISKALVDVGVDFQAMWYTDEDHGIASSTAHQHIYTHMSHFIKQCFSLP

Structure (SMILES): N[C@H]1CN(c2cc(N3CCC(F)(F)C3)ncn2)C[C@@H]1N1CC(F)(F)CCC1=O [Example 2, 1-((3S,4S)-4-amino-1-(6-(3,3-difluoropyrrolidin-1-yl)pyrimidin-4-yl)pyrrolidin-3-yl)-5,5-difluoropiperidin-2-one]
- IC50 [1]: 0.00839 µM
- percent (%) inhibition of glucose excursion relative to the two control groups [2]: 39.8%

Structure (SMILES): CCSc1nc(N2C[C@H](N)[C@@H](N3CCCCC3=O)C2)cc(N2CCC(F)(F)C2)n1 [Example 20, 1-((3S,4S)-4-amino-1-(6-(3,3-difluoropyrrolidin-1-yl)-2-(ethylthio)pyrimidin-4-yl)pyrrolidin-3-yl)piperidin-2-one]
- IC50 [1]: 0.0825 µM

Structure (SMILES): CCOc1ncc2c(n1)CCN(c1ncnc(N3C[C@H](N)[C@@H](N4CCCCC4=O)C3)n1)C2.O=C(O)C(F)(F)F [Example 72, 1-((3S,4S)-4-Amino-1-(4-(2-ethoxy-7,8-dihydropyrido[4,3-d]pyrimidin-6(5H)-yl)-1,3,5-triazin-2-yl)pyrrolidin-3-yl)piperidin-2-onetrifluoroacetate]
- DPP-IV Percent Inhibition at 300 nM ([1]; at 300 nM): 13.1%(4)

Structure (SMILES): CSc1ccc(Sc2ccc3c(N4C[C@H](N)[C@@H](N5CCCCC5=O)C4)ncnc3c2)cc1 [Example 132]
- IC50 [1]: 0.72 µM

Structure (SMILES): N[C@H]1CN(c2ncnc(N3CC[C@H](F)C3)n2)C[C@@H]1N1CCCCC1=O [Example 25, 1-((3S,4S)-4-Amino-1-(4-((S)-3-fluoropyrrolidin-1-yl)-1,3,5-triazin-2-yl)pyrrolidin-3-yl)piperidin-2-onetrifluoroacetate]
- IC50 [1]: 0.0802 µM

Structure (SMILES): COc1ccc2c(N3C[C@H](N)[C@@H](N4CC(F)(F)CCC4=O)C3)ncnc2c1 [Example 98, 1-((3S,4S)-4-amino-1-(7-methoxyquinazolin-4-yl)pyrrolidin-3-yl)-5,5-difluoropiperidin-2-one]
- IC50 [1]: 0.0342 µM

Structure (SMILES): N[C@H]1CN(c2cc(OCC(F)(F)F)ncn2)C[C@@H]1N1CCCCC1=O [Example 92, 1-((3S,4S)-4-Amino-1-(6-(2,2,2-trifluoroethoxy)pyrimidin-4-yl)pyrrolidin-3-yl)piperidin-2-one trifluoroacetate]
- inhibition at 0.3 µM ([1]; at 300 nM, read-out: DPP-IV Percent Inhibition at 300 nM): 28.9%

Structure (SMILES): N[C@H]1CN(c2cc(N3CCc4nocc4C3)ncn2)C[C@@H]1N1CCCCC1=O [Example 5, 1-((3S,4S)-4-Amino-1-(6-(6,7-dihydroisoxazolo[4,3-c]pyridin-5(4H)-yl)pyrimidin-4-yl)pyrrolidin-3-yl)piperidin-2-one dihydrochloride]
- IC50 [1]: 0.0118 µM
